Test results from patent US5487899A, “Wound healing” (Jess Clarke & Sons, Inc., priority 1994, dated 1996).

Tests used:
[1] = tested on: croton oil-induced ear swelling; assay: croton oil-induced ear swelling (Example 4); assay type: in vivo, ICR-HSD mice; details: Aspirin 100 μg, topical, 6 h
Method: Four groups (10 mice per group) of adult male ICR-HSD mice was given topically 25 μg/per 10 μl croton oil solutions. This irritant was applied to the inner surface of the animal's right ear, and the left ear was not treated and used as a control. One-half hour after the application of the croton oil irritant, solutions were added topically to reduce inflammation; the solutions were 1% aspirin, 2% Aloe and a solution that had both aspirin and aloe.
Six hours after the topical application of croton oil solutions, a 6 mm biopsy punch specimen was taken from each ear, weighed, and the weight differences between the two were compared to determine the amount of inflammation remaining on the right ear.

[2] = tested on: open wounds; assay: Open wound healing assay (Example 5); assay type: in vivo, ICR mice; details: daily subcutaneous, Saline control 60.0 ± 8.3
Method: Adult male ICR mice (30 g, 15 animals/group) were anesthetized with ether and shaved on both sides of the back. A sterile 6 mm Baker biopsy punch was used to induce a wound on each side of the vertebral column. Anterior-posterior wound diameter measurements were made using a vernier caliper on days 0, 4 and 7. Three treatment groups received daily subcutaneous injections of a gibberellic acid (GA3) solution at dosages of 2, 10 and 100 mg/Kg, respectively. Control mice received daily injections of saline on a 10 ml/Kg basis. Standard errors for each mean value was calculated. The student's "t" test was used to determine significant differences between treatment and control groups. An analysis of variance (ANOVA) was also calculated to determine the statistical significance of the study as a whole, and gave a Fisher ratio at 16.48 which is significant at p<0.001.

[3] = tested on: wound; assay: Wound tensile strength assay (Example 6); assay type: in vivo,  mice; details: 50 mg/kg (each) × 4, subcutaneous, 6 h after day 4 injection
Method: While tensile strength of wounds is measured in terms of the load applied per unit of cross section area, the breaking strength is the measure of force required to break a wound of tissue without regard to dimensions. While tensile strength is not a function of the incision length, breaking strength is. The measurements of force required to pull a wound apart differ chiefly in the manner in which the force is applied and the sophistication of the force measurement. In the data recorded herein and in the data collected in the making of the present invention, we used a conventional plastic syringe calibrated to measure […] of air injected into the peritoneal cavity of the mouse. […] Elastic bands are first placed on over the shoulders and hips of the animal to contain the injected air into a defined area of the body and to reduce error involving underlying tissue of the peritoneal cavity, and air is injected into the animal until the wound is disrupted at which time the volume of air is recorded. […]
Each wound was closed with a 9 mm wound clip at 0.25-inch spacings for a total of 3 clips per wound. […] Six hours after the day 4 injection, the tensile strength of wounds was measured by injecting air into the peritoneal cavity from a syringe as described above.

Row | SMILES | Inhibition (%) of croton oil-induced ear swelling [1] | decrease (%) in wound diameter ([2]; 2 mg/kg) | decrease (%) in wound diameter ([2]; 10 mg/kg) | decrease (%) in wound diameter ([2]; 100 mg/kg) | increase (%) in wound tensile strength [3]
1 | CC(=O)Oc1ccccc1C(=O)O [Aspirin] | 23.7 ± 3.1% | – | – | – | –
2 | C=C1C[C@]23C[C@@]1(O)CC[C@H]2[C@@]12C=C[C@H](O)[C@@](C)(C(=O)O1)[C@H]2[C@@H]3C(=O)O [Gibberellin, gibberellic acid] | – | 65.3 ± 11.3% | 71.6 ± 12.1% | 81.7 ± 7.0% | 36.1 ± 1.5%
